Measurements published in patent publication US5840918A, “Isoprenyl transferase inhibitors” (Eisai Co., Ltd., priority 1997, dated 1998).

Columns and labels:
[1] = system: H-ras farnesylation in H-ras (61L) transformed NIH3T3 fibroblasts; assay: Inhibition of H-ras farnesylation in whole cells (Western blot); type: cell-based, mouse
Method: The ability of compounds of the invention to inhibit H-ras farnesylation and rap1 geranylgeranylation in whole cells was determined. H-ras (61L) transformed NIH3T3 fibroblasts were generously provided by C. Der, Univ. N. Carolina. These fibroblasts were treated for 24 h with 50 μM lovastatin (control) or the indicated concentrations of inhibitor. The cells were lysed in 1% NP-40, 5 mM Tris-HCl (pH 8.0), 5 mM EDTA, 0.1 mM N-tosyl-L-phenylalanine chloromethyl ketone, 0.1 mM N-tosyl-L-lysine chloromethyl ketone, and 1 mM phenylmethylsulfonyl fluoride. The lysate was centrifuged (15000×g, 5 min.) and the supernatant was used as a cell extract. […] After transfer to IMMOBILON P™ membrane (Millipore), the blots were probed with LA069 mouse monoclonal antibody to H-ras (Quality Biotech), or rabbit polyclonal antibody to rap1/Krev (Santa Cruz Biotechnology). All Western blots were developed using ECL chemiluminescent reagents (Amersham).

FTase = target: T1, FTase (Bos taurus, UniProt P29702+P49355); assay: Inhibition of FTase-mediated prenylation (in vitro prenylation assay); type: biochemical; conditions: Table 1; partially purified FTase, 3 μM recombinant H-ras, 440 nM [3H]FPP, 15 min 37° C
T1 construct: bovine brain by inference from the cited Moores et al. 1991
Text: (§1) Nanomolar concentrations of the indicated compounds were sufficient to inhibit farnesylation of ras proteins in vitro. For screening candidate compounds useful for the treatment of ras-associated tumors, the FTase assay is preferred. […] Substitutions which confer GGTase specificity as taught herein also produced potent inhibitors of GGTase.

GGTase = assay: Inhibition of GGTase-mediated prenylation (in vitro prenylation assay); type: biochemical; conditions: Table 1; partially purified GGTase, 5 μM recombinant H-ras (61L, CAIL), 1 μM [3H] geranylgeranyl diphosphate
Text: as §1

[2] = Mus musculus, NIH3T3, 24 h, Table 2

Compound	IC50 [1, 2] [nM]	IC50 (FTase) [nM]	IC50 (GGTase) [nM]	IC50 ([1]; Table 2, 24 h) [nM]
CC(C)[C@H](/C=C/C(N)CS)CN(C)C(Cc1cccs1)C(=O)N[C@@H](CCS(C)(=O)=O)C(=O)O (stereo partly drawn) [PA121]	580	15	380	–
COC(=O)[C@H](CCS(C)(=O)=O)NC(=O)C(Cc1cccs1)NC[C@@H](/C=C/C(N)CS)C(C)C (stereo partly drawn) [PA011]	100	140	11000	–
CCc1ccc(C/C=C/C(N)CS)cc1C(=O)N[C@@H](CCSC)C(=O)O (stereo partly drawn) [PM062]	360	9	420	–
NC(/C=C/Cc1ccc(-c2ccccc2)c(C(=O)N[C@@H](Cc2ccccc2)C(=O)O)c1)CS (stereo partly drawn) [PM172]	> 100000	56	123	–
CSCC[C@H](NC(=O)c1cc(C/C=C/C(N)CS)ccc1-c1ccsc1)C(=O)O (stereo partly drawn) [PM021]	2100	17	75	–
CCOC(=O)[C@H](CCSC)NC(=O)C(/C=C/[C@@H](/C=C/C(N)CS)Cc1ccccc1)C(C)C (stereo partly drawn) [PD351]	3300	320	2490	–
CSCCC(NC(=O)c1cc(CC=CC(N)CSSCC(N)C=CCc2ccc(-c3ccccc3)c(C(=O)NC(CCSC)C(=O)O)c2)ccc1-c1ccccc1)C(=O)O (stereo not drawn) [PM141]	9700	0.1	16	–
CSCC[C@H](NC(=O)c1cc(C/C=C/C(N)CS)ccc1-c1ccccc1)C(N)=O (stereo partly drawn) [PM081]	23400	170	1680	–
CSCC[C@H](NC(=O)C(/C=C/[C@@H](/C=C/C(N)CS)C(C)C)C(C)C)C(=O)N1CCOCC1 (stereo partly drawn) [PD032]	1950	450	2860	–
CSCC[C@H](NC(=O)C(/C=C\[C@@H](/C=C/C(N)CS)C(C)C)Cc1ccccc1)C(=O)O (stereo partly drawn) [PD401]	100 to 1000	28	1400	–
NC(C=CCc1ccc(-c2ccsc2)c(C(=O)NC(Cc2cccs2)C(=O)O)c1)CSSCC(N)C=CCc1ccc(-c2ccsc2)c(C(=O)NC(Cc2cccs2)C(=O)O)c1 (stereo not drawn) [PM022]	13100	18	130	–
CSCC[C@H](NC(=O)c1cc(C/C=C/C(N)CS)ccc1-c1cccc(C(F)(F)F)c1)C(=O)O (stereo partly drawn) [PM111]	> 100000	24	246	–
CSCC[C@H](NC(=O)c1cc(C/C=C/C(N)CS)ccc1-c1cccc2ccccc12)C(=O)O (stereo partly drawn) [PM082]	21000	30	148	–
CSCC[C@H](NC(=O)C(Cc1cccs1)N(C)C[C@@H](/C=C/C(N)CS)C(C)C)C(=O)O (stereo partly drawn) [PA071]	3100	22	500	–
CC(C)C(/C=C/[C@@H](/C=C/C(N)CS)C(C)C)C(=O)N[C@H]1CCOC1=O (stereo partly drawn) [PD092]	780	52	3200	–
NC(=O)CC[C@H](NC(=O)c1cc(C/C=C/C(N)CS)ccc1-c1ccccc1)C(=O)O (stereo partly drawn) [PM051]	23500	0.85	1550	–
NC(/C=C/Cc1ccc(-c2ccccc2)c(C(=O)N[C@@H](CO)C(=O)O)c1)CS (stereo partly drawn) [PM091]	474000	2	> 1000	–
CSCC[C@H](NC(=O)C(/C=C/C(/C=C/CCS)C(C)C)Cc1ccccc1)C(=O)O (stereo partly drawn) [PD162]	326000	260	4570	–
CC(C)C(/C=C/[C@@H](/C=C/C(N)CS)C(C)C)C(=O)N[C@@H](CCS(C)(=O)=O)C(=O)O (stereo partly drawn) [PD172]	13100	7	750	–
CC(C)COC(=O)[C@H](CCS(C)(=O)=O)NC(=O)c1cc(C/C=C/[C@@H](N)CS)ccc1-c1ccsc1 [PM072]	2400	160	3960	–
COC(=O)[C@H](CCSC)NC(=O)C(Cc1cccs1)N(C)C[C@@H](/C=C/C(N)CS)C(C)C (stereo partly drawn) [PA131]	39	28	1800	–
CC(C)C(/C=C/[C@@H](/C=C/C(N)CS)C(C)C)C(=O)N[C@@H](CO)C(=O)O (stereo partly drawn) [PD202]	1950	17	1120	–

Compound	IC50 [1, 2] [nM]	IC50 (FTase) [nM]	IC50 (GGTase) [nM]	IC50 ([1]; Table 2, 24 h) [nM]
CSCC[C@H](NC(=O)c1cc(C/C=C/C(N)CS)ccc1-c1ccco1)C(=O)O (stereo partly drawn) [PM052]	2600	0.3	190	–
COC(=O)[C@H](CCSC)NC(=O)C(/C=C/[C@@H](/C=C/C(N)CS)C(C)C)C(C)C (stereo partly drawn) [PD411]	220	560	8400	–
CCOC(=O)C(CCSC)NC(=O)C(C=CC(C=CC(N)CS)Cc1ccccc1)C(C)C (stereo not drawn) [PD421]	1900	570	3400	–
NC(/C=C/Cc1ccc(-c2ccsc2)c(C(=O)N[C@@H](Cc2cccs2)C(=O)O)c1)CS (stereo partly drawn) [PM152]	40300	38	270	–
COC(=O)[C@H](CCS(C)(=O)=O)NC(=O)c1cc(CCC[C@@H](N)CS)ccc1-c1ccsc1 [PM032]	19500	93	6590	–
CSCC[C@H](NC(=O)C(/C=C/[C@@H](/C=C/C(N)CS)C(C)C)C(C)C)C(=O)NCc1ccccn1 (stereo partly drawn) [PD192]	180	296	2990	–
CSCC[C@H](NC(=O)C(/C=C/C(/C=C/CCS)C(C)C)Cc1ccccc1)C(=O)O (single isomer, unassigned) [PD112]	193000	2220	8050	–
CSCC[C@H](NC(=O)C(/C=C/[C@@H](/C=C/C(N)CS)C(C)(C)C)C(C)C)C(=O)O (stereo partly drawn) [PD142]	7300	42	2120	–
COC(=O)[C@H](CCSC)NC(=O)c1cc(C/C=C/[C@@H](N)CS)ccc1-c1ccccc1 [PM041]	2300	180	1400	–
COC(=O)[C@H](CCSC)NC(=O)C(Cc1cccs1)NC[C@@H](/C=C/C(N)CS)C(C)C (stereo partly drawn) [PA081]	25	102	2660	–
COC(=O)C(CCSC)NC(=O)C(Cc1ccccc1)OCC(C=CC(N)CSSCC(N)C=CC(COC(Cc1ccccc1)C(=O)NC(CCSC)C(=O)OC)C(C)C)C(C)C (stereo not drawn) [PE051]	110	290	2300	–
CCc1ccc(C/C=C/C(N)CS)cc1C(=O)N[C@@H](CCSC)C(=O)OC (stereo partly drawn) [PM212]	45	56	1840	–
CSCC[C@H](NC(=O)c1cc(C/C=C/C(N)CS)ccc1-c1cccs1)C(=O)O (stereo partly drawn) [PM182]	2700	17	520	–
CSCCC(NC(=O)C(C=CC(C=CC(N)CSSCC(N)C=CC(C=CC(Cc1ccccc1)C(=O)NC(CCSC)C(=O)O)C(C)C)C(C)C)Cc1ccccc1)C(=O)O (stereo not drawn) [PD212]	110	3	4.5	–
CSCC[C@H](NC(=O)c1cccc(C/C=C/C(N)CS)c1)C(=O)O (stereo partly drawn) [PM102]	26000	290	4850	–
CSCC[C@H](NC(=O)C(NC[C@@H](/C=C/C(N)CS)C(C)C)C(C)C)C(=O)O (stereo partly drawn) [PA061]	580	2.1	48	–
C[C@H](/C=C/C(N)CS)/C=C/C(Cc1ccccc1)C(=O)N[C@@H](CCC(N)=O)C(=O)O (stereo partly drawn) [PD062]	–	200	1760	21000
COC(=O)[C@H](CCS(C)(=O)=O)NC(=O)c1cc(C/C=C/C(N)CS)ccc1-c1ccsc1 (stereo partly drawn) [PM202]	1200	16	7420	–
CSCC[C@H](NC(=O)c1cc(C/C=C\C(N)CS)ccc1-c1ccccc1)C(=O)O (stereo partly drawn) [PM101]	14600	24	793	–
CSCC[C@H](NC(=O)C(Cc1ccccc1)OC[C@@H](/C=C/C(N)CS)C(C)C)C(=O)O (stereo partly drawn) [PE021]	280	9	92	–
COc1ccc(C/C=C/C(N)CS)cc1C(=O)N[C@@H](CCSC)C(=O)O (stereo partly drawn) [PM122]	23400	3	2200	–
